How the values were obtained:
genetically obese mice = experiment: carcass lipid of genetically obese mice after daily oral dosing for 28 days (anti-obesity); type: in vivo, mouse (genetically obese); conditions: for anti-obesity activity (in words): general statement, no dose given; for g - lipid per mouse, Treated: daily for 28 days
Protocol: (i) The compounds and a comparison compound (salbutamol) were dosed daily in water or carboxymethylcellulose suspension to genetically obese mice by oral gavage for 28 days. At the end of that time the carcass composition was determined.

blood glucose = experiment: hypoglycaemic activity: reduction in area under blood glucose curve after glucose load in fasted mice; type: in vivo, female CFLP mice; conditions: for anti-hyperglycaemic activity (in words): general statement, no dose given; for inhibition in vivo at 5 mg/kg: Mus musculus, po, 2 h, 5 mg/kg po, 30 min before glucose load 1 g/kg sc, 2 hour period, versus control mice
Protocol: Female CFLP mice, weighing approximately 25 g, were fasted for 24 hours prior to the study. The compounds under study were dosed orally (20 mg and 5 mg/kg) to each of 8 mice. 30 minutes later a blood sample ([…]) was obtained from the tail for the analysis of blood glucose. Immediately after taking this blood sample, each mouse was given a glucose load (1 g/kg body weight sub-cutaneously). Blood samples were then obtained from each mouse at 30 minute intervals for 120 minutes.
Compounds that produced a significant (P<0.05) reduction of blood glucose, compared with control mice given water, at any time interval were considered active. The area under the blood glucose curve over the 2 hour period after giving the glucose load was calculated for each compound and compared with the value for control animals. Thus a compound would give a 100% reduction in the area under the blood glucose curve if the blood glucose was maintained at the same level as in untreated fasted animals. Reduction in the glucose curve of more than 100% indicate that a compound, in spite of being given a glucose load, maintained blood glucose levels below that found in control fasted mice.

[1] = relative potency / activity (test not specified)
[2] = tested on: 5-hydroxytryptamine-induced bronchoconstriction; experiment: bronchodilator potency in anaesthetised artificially respired guinea pig (Konzett-Rossler preparation); type: in vivo; conditions: inhibition of 5-hydroxytryptamine-induced bronchoconstriction
CFLP mice = experiment: acute toxicity, single lethal dose; type: in vivo; conditions: po
Source text: Other compounds of the invention have similar low toxicities.

Row | Structure (SMILES) | anti-obesity activity (in words) (genetically obese mice) | anti-hyperglycaemic activity (in words) (blood glucose) | relative potency / activity (in words) [1] | inhibition in vivo at 5 mg/kg (blood glucose) | further results
1 | COC(=O)c1ccc(CC(C)NCC(O)c2ccc(O)c(CO)c2)cc1 (centres unmarked) [21 (higher melting), N-[2-(4-carbomethoxyphenyl)-1-methylethyl]-2-hydroxy-2-(4-hydroxy-3-hydroxymethylphenyl) ethanamine] | particularly worthy of mention in view of their anti-obesity activity | particularly worthy of mention in view of their anti-hyperglycaemic activity | more potent diastereoisomer | – | –
2 | COC(=O)c1ccc(CC(C)NCC(O)c2ccc(O)c(CO)c2)cc1 (centres unmarked) [Example 1] | particularly worthy of mention in view of their anti-obesity activity | particularly worthy of mention in view of their anti-hyperglycaemic activity | – | 157% | g - lipid per mouse, Treated (genetically obese mice; 8 mg/kg po, control 23.3 ± 0.7): 20.8 ± 0.7 g; bronchodilator potency relative to salbutamol [2]: one twelfth as potent as salbutamol; single lethal dose (CFLP mice): > 900 mg/kg
3 | COC(=O)c1ccc(CC(C)NCC(O)c2ccccc2)cc1 (centres unmarked) [Example 22, N-(2-[4-Carbomethoxyphenyl]-1-methylethyl)-2-hydroxy-2-phenylethanamine] | particularly worthy of mention in view of their anti-obesity activity | particularly worthy of mention in view of their anti-hyperglycaemic activity | – | 172% | g - lipid per mouse, Treated (genetically obese mice; 9 mg/kg po, control 18.9 ± 0.66): 13.9 ± 0.65 g
4 | COC(=O)c1ccc(CC(C)NCC(O)c2ccccc2Cl)cc1 (centres unmarked) [Example 28, N-(2-[4-Carbomethoxyphenyl]-1-methylethyl)-2-(2-chlorophenyl)-2-hydroxyethanamine] | – | – | – | 37% | g - lipid per mouse, Treated (genetically obese mice; 19 mg/kg po, control 17.0 ± 0.67): 14.9 ± 0.37 g
5 | COC(=O)c1ccc(CC(C)NCC(O)c2cc(Cl)c(N)c(Cl)c2)cc1 (centres unmarked) [Example 30, N-(2-[4-Carbomethoxyphenyl]-1-methylethyl)-2-(4-amino-3,5-dichlorophenyl)-2-hydroxyethanamine] | particularly worthy of mention in view of their anti-obesity activity | particularly worthy of mention in view of their anti-hyperglycaemic activity | – | 141% | g - lipid per mouse, Treated (genetically obese mice; 22 mg/kg po, control 19.1 ± 0.47): 14.0 ± 0.57 g
6 | COC(=O)c1ccc(CC(C)NCC(O)c2ccccc2)cc1 (centres unmarked) [Example 59 (mp 83°-4°), N-[2-(4-carbomethoxyphenyl)-1-methylethyl]-2-hydroxy-2-phenylethanamine] | – | – | more potent diastereoisomer | – | –

Reference: patent US4478849A, “Secondary amines, their preparation and use in pharmaceutical compositions” (Beecham Group Limited, priority 1978, dated 1984)
